Experimental data as given in patent US10704024B2, “Method for producing mesenchymal cells with promoted c-MPL receptor expression on cell surface” (AdipoSeeds, Inc., priority 2015, dated 2020).

Assays:
[1] = system: Human primary culture preadipocytes (HPAd); assay: Culture of preadipocytes in basic medium with TPO; c-MPL receptor positive cells by flow cytometry and immunostaining; format: cell-based
Procedure: In order to check whether expression of a c-MPL receptor on a cell surface of a mesenchymal cell is promoted or not, the following culture experiment was carried out by culturing mesenchymal cells in a mesenchymal cell culturing basic medium comprising a c-MPL receptor active substance. Note that, in the culture experiment, preadipocytes were used as the mesenchymal cells.
Human primary culture preadipocytes (Human Preadipocytes: HPAd) manufactured by CELL APPLICATIONS were prepared. A culture dish was coated with collagen and then a culture medium was added to the dish. As the culture medium, DMEM medium (Dulbecco's Modified Eagle's Medium, manufactured by Life Technology Co.), to which a 10% fetal bovine serum (manufactured by Sigma), a 1% non-essential amino acid(s) (manufactured by Life Technology Co.), a 100 U/mL penicillin-streptomycin solution (manufactured by Life Technology Co.) and 50 ng/mL recombinant human TPO (manufactured by R&D Systems) were added, was used. The preadipocytes were cultured in the culture medium at 37° C. for 3 days. […] The preadipocytes (hereinafter referred to as “the cell population of preadipocytes (TPO+)”) were labeled with a fluorescence-labeled anti c-MPL antibody (manufactured by BD Bioscience), and fluorescence was measured by flow cytometry. When the ratio of c-MPL receptor positive cells was determined in this manner, the ratio was 3.68±0.39%. Note that, the cell population of preadipocytes (TPO+) was immuno-stained with a “fluorescence-labeled anti c-MPL antibody” and “DAPI (4′,6-diamidino-2-phenylindole)”. In the right panel, cells emitting fluorescence derived from the fluorescence-labeled anti c-MPL antibody are observed around the circular fluorescence emitted from nuclei stained with DAPI.
In contrast, the preadipocytes (hereinafter referred to as “cell population of preadipocytes (TPO−)”) were cultured in the same method except that recombinant human TPO was not added to a culture medium. When the ratio of the c-MPL receptor positive cells was determined by flow cytometry, the ratio was 0.67±0.12%. […]

[2] = system: cell population of preadipocytes (TPO+); assay: Differentiation induction of preadipocytes into megakaryocytes/platelets in MKLI medium; CD41 positive cells by flow cytometry; format: cell-based, human
Procedure: In order to check whether “cell population of preadipocytes (TPO+)” obtained in Example 1 can be actually used for efficient production of megakaryocytes/platelets (megakaryocyte and/or platelet), differentiation of preadipocytes into megakaryocyte/platelets was induced in accordance with the method described in Patent Document 1.
A culture dish was coated with collagen and then a culture medium was added to the dish. As the culture medium, MKLI medium (megakaryocyte lineage induction medium) known as a medium which can induce differentiation of hematopoietic stem cells into megakaryocytes/platelets, was used. […]
The “cell population of preadipocytes (TPO+)” obtained in Example 1 was cultured in MKLI medium as mentioned above at 37° C. and in the conditions of a CO2 concentration of 5% for 7 days. After culture, the cell population was separately taken and the ratio (%) of CD41 (specific marker of megakaryocytes or platelets) positive cells in the cell population was determined. […]
In contrast, the ratio of CD41 positive cells in the “cell population of preadipocytes (TPO−)” obtained in Example 1 was determined by flow cytometry. […]

CMK cells [3] = conditions: cited from earlier work
CMK cells [4] = conditions: luciferase gene ligated downstream of the promoter; cited from earlier work

For thrombopoietin [TPO], the “ratio of c-MPL receptor positive cells” value ([1]; 50 ng/mL recombinant human TPO, 37° C., 3 days, fluorescence-labeled anti c-MPL antibody, flow cytometry) was 3.68±0.39%, the “increase of the ratio of c-MPL receptor positive cells relative to the case where TPO is not added” value ([1]; TPO added to culture medium vs not added) was “about 5.5 time” and the “c-MPL receptor positive cells by immunostaining (FIG. 1, right panel)” value ([1]; TPO added, 3 days, fluorescence-labeled anti c-MPL antibody and DAPI) was “a large number of the cells, i.e., c-MPL receptor positive cells are present”. The “number of megakaryocytes/platelets produced relative to preadipocytes cultured in medium not comprising recombinant TPO” value ([2]; TPO+ vs TPO− preadipocytes) was “about 1.7 times”, the “ratio of CD41 positive cells in the cell population” value ([2]; preadipocytes pre-cultured with TPO, then MKLI medium 37° C., 5% CO2, 7 days, FITC-labeled anti CD41 antibody, flow cytometry) was 28.5±2.1% and the “expression of a c-MPL receptor on the surface of CMK cells” value (CMK cells [3]) was “reduces expression”. The “activity of the promotor of a c-MPL receptor gene” value (CMK cells [4]) was “induced”.
